Experimental data as given in the METLIN SMRT retention time set (Domingo-Almenara et al. 2019).

Assay: gradient 5% acetonitrile 3 min, to 50% in 2 min, to 85% in 15 min, held 3 min, 100 µL/min
Conditions: column: Zorbax Extend-C18 2.1 x 50 mm; eluents: water / acetonitrile, 0.1% formic acid
Procedure, shortened: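 Pure standards were analyzed in mixtures of ~100 molecules using HPLC coupled to a quadrupole time-of-flight mass spectrometer, in both positive and negative ionization mode. Separation used a Zorbax Extend-C18 column (2.1 × 50 mm, 1.8 μm) at 100 μL/min, with water and acetonitrile each containing 0.1% formic acid. Dead and dwell volumes were 40 μL and 900 μL, and data were collected over 3 months. Retention time was read from computationally picked adduct peaks, each inspected manually.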

Work on `C=CC(=O)Nc1cccc(Oc2nc(Nc3ccc(N4CCN(C)CC4)cc3OC)ncc2Cl)c1` yielded an RP-LC retention time of 718 s.
For `COc1ccc(Cc2nc(-c3ccc4c(c3)nc(C)c(=O)n4C)no2)cc1`, the RP-LC retention time was 927 s.
`CCOc1ccc(CC(=O)N2C[C@@H]3C[C@H]2C[C@@H]3NC(=O)c2ccccc2)cc1` showed an RP-LC retention time of 762 s.
Work on `CCS(=O)(=O)N1N=C(c2cccs2)CC1c1ccc2nccnc2c1` (centres undefined) yielded an RP-LC retention time of 724 s.
In the case of `CC(C(=O)NCc1ccco1)C1CCN(C(=O)c2cc3ccccc3[nH]2)CC1` (centres undefined), the RP-LC retention time is reported as 767 s.
Compound `OC[C@@H]1CNC[C@H]1C1CCN(Cc2ccc(Cl)c(F)c2)CC1` has an RP-LC retention time of 542 s.
Compound `CNC(=O)N1CCCC(c2cccc(C(=O)NCc3ccccc3C(F)(F)F)c2)C1` (centres undefined) has an RP-LC retention time of 838 s.
For `Cc1ccccc1CNC(=O)C1CCCN(S(=O)(=O)c2c[nH]c(C(=O)N3CCCCCC3)c2)C1` (centres undefined), the RP-LC retention time was 871 s.
Compound `Cc1ccc(Cn2c(N3CCCC(C(=O)NCc4ccccc4)C3)nc3ccsc3c2=O)cc1` (centres undefined) has an RP-LC retention time of 958 s.
Work on `O=C(Cn1c(=O)c(CCC(=O)NC2CCCC2)nc2ccccc21)Nc1ccc(F)c(Cl)c1` yielded an RP-LC retention time of 672 s.
`CCn1cc(C)c(C(=O)O)c1CC(=O)Nc1cccc(C)n1` gave an RP-LC retention time of 678 s.
For `Cc1cccc(/C=C/c2ccccc2)n1`, the RP-LC retention time was 664 s.
In the case of `Cn1nccc1C(=O)Nc1ccc(OCc2nnc(-c3ccccc3)o2)cc1`, the RP-LC retention time is reported as 786 s.
Compound `CCC(C)NC(=O)c1cn(C)nc1S(=O)(=O)N1CCN(c2cc(Cl)ccc2C)CC1` (centres undefined) has an RP-LC retention time of 1150 s.
In the case of `COc1cc(C(O)CCBr)c(OC)cc1C` (centres undefined), the RP-LC retention time is reported as 1020 s.
For `CCn1nc(-c2ccccc2)c(-c2ccccc2)c(C(=O)OC)c1=O`, the RP-LC retention time was 973 s.
With `O=C(C1CCN(c2nc3ccc(-c4ccccc4)nc3s2)CC1)N1CCCC1` the RP-LC retention time was 910 s.
For `CC(C)CC(=O)N1CCc2cc(CNC(=O)c3ccnn3C)ccc21`, the RP-LC retention time was 754 s.
Work on `COc1ccc(-c2nc3cnccn3c2Nc2cc(C)cc(C)c2)cc1OC` yielded an RP-LC retention time of 874 s.
In the case of `CNC(=O)N1CCCC(c2nc(CCOCC3CCCC3)no2)C1` (centres undefined), the RP-LC retention time is reported as 759 s.
With `Cn1nc(C(=O)N2CCC3(CC2)N=C(c2ccc(Br)cc2)NO3)c2ccccc21` the RP-LC retention time was 916 s.
`O=S(=O)(Cc1ccccc1)N1CCCC(c2nnnn2-c2ccccc2)C1` (centres undefined) showed an RP-LC retention time of 905 s.
Work on `CCc1nnc(-c2cccn2CC(=O)NCc2cccc(Br)c2)o1` yielded an RP-LC retention time of 835 s.
Work on `Cc1cc(C)n(-c2ccnc(NCc3cccnc3)n2)n1` yielded an RP-LC retention time of 588 s.
For `CCOc1ccc(NC(=O)CSc2nccc(N3CCN(c4cc(C)ccc4C)CC3)n2)cc1`, the RP-LC retention time was 928 s.
With `CCN1C(=O)COc2ccc(-c3noc(/C=C/c4ccc(OC)c(OC)c4)n3)cc21` the RP-LC retention time was 1050 s.
For `Cc1ccccc1-n1c(SCc2nc(-c3ccccc3)no2)nc2cc3c(cc2c1=O)OCO3`, the RP-LC retention time was 1190 s.
`O=C(CCC1CCN(c2cc(NC3CC3)ncn2)CC1)NCc1ccc(F)cc1Cl` gave an RP-LC retention time of 689 s.
For `O=C(O)c1ccc(NCCCO)c([N+](=O)[O-])c1`, the RP-LC retention time was 587 s.
In the case of `COc1ccc(NC(=O)N2c3ccccc3CC2c2nc(C3CC3)no2)c(OC)c1` (centres undefined), the RP-LC retention time is reported as 1030 s.
In the case of `CCOc1ccccc1CN1C(=O)c2ccccc2C1C(=O)NC(C)CC` (centres undefined), the RP-LC retention time is reported as 899 s.
`Cc1csc(NC(=O)CN2C(=O)C3CCCCN3c3ccc(S(=O)(=O)N(C)C)cc32)n1` (centres undefined) showed an RP-LC retention time of 853 s.
For `C=C1C[C@H]2[C@@H]3CCC4=CC(=O)CC[C@@H]4[C@H]3CC[C@]2(C)[C@@]1(OC(C)=O)C(C)=O`, the RP-LC retention time was 1160 s.
Work on `CCN1CCC(N(Cc2ccc3c(c2)OCO3)C(=O)Nc2cccc(C)c2)CC1` yielded an RP-LC retention time of 691 s.
`CCc1ccc(NC(=O)Cn2nc(C(=O)N3CCOCC3)c3ccccc32)cc1` showed an RP-LC retention time of 822 s.
Work on `CCOc1ccccc1-c1noc(Cn2cnc3c(cnn3-c3ccc(C)c(Cl)c3)c2=O)n1` yielded an RP-LC retention time of 1230 s.
In the case of `Cc1ccc(CNC(=O)C2(C)Cn3cnc(C(=O)NCc4ccccc4F)c3C(=O)N2C2CC2)cc1` (centres undefined), the RP-LC retention time is reported as 780 s.
With `Cc1cc(-c2nnc(-c3ccc(F)cc3)o2)c(C)n1CC(=O)NCc1ccc(F)cc1` the RP-LC retention time was 945 s.
`O=C(Nc1ccc2nc3n(c(=O)c2c1)CCCCC3)C(=O)NC1CC1` gave an RP-LC retention time of 687 s.
`CCOC(=O)c1noc2nc(C)nc(NCC3CCN(CCc4ccc(F)cc4)CC3)c12` gave an RP-LC retention time of 741 s.
For `COc1ccc(OC)c(NC(=O)c2cc(C)n3nc(-c4ccco4)cc3n2)c1`, the RP-LC retention time was 1160 s.
With `O=C(CN1CCN(Cc2ccccc2F)C1=O)N1CCN(c2ccccc2F)CC1` the RP-LC retention time was 857 s.
`CCCNc1cc(N2CCC(CCC(=O)NCc3ccc(Cl)cc3)CC2)ncn1` showed an RP-LC retention time of 718 s.
For `O=C(Cc1cccs1)NCCS(=O)(=O)N1CCc2ccccc2C1`, the RP-LC retention time was 764 s.
With `CCOC(=O)C1CCN(c2ncnc3c2cnn3-c2cccc(C)c2)CC1` the RP-LC retention time was 1080 s.
Compound `CCCN(CCC)C(=O)Cn1nc(-c2nc(-c3ccc(C)cc3)no2)c2ccccc21` has an RP-LC retention time of 859 s.
Compound `C[C@H]1CN(C(=O)Nc2ccc3c(c2)CCC3)C[C@@H]1c1nc(-c2cccnc2)no1` has an RP-LC retention time of 866 s.
`CCOc1cccc(CNC(=O)c2cnc(-c3ccccc3)nc2-c2ccncc2)c1` gave an RP-LC retention time of 855 s.
Compound `CC(=O)N1c2ccc(S(=O)(=O)N3CCCCCC3)cc2CC1C(=O)NCc1ccc(F)cc1` (centres undefined) has an RP-LC retention time of 890 s.
With `CCCc1c(C(=O)O)nnn1-c1ccc(C)cc1F` the RP-LC retention time was 761 s.
For `CCn1cc(C(=O)Nc2cc(OC)cc(OC)c2)c(S(=O)(=O)N2CCSCC2)n1`, the RP-LC retention time was 992 s.
`O=C(NCCCN1CCOCC1)C1c2ccccc2C(=O)N(C2CCCC2)C1c1cccs1` (centres undefined) gave an RP-LC retention time of 646 s.
In the case of `Cc1cccc(N2CCN(C(=O)c3csc(C(=O)NC4CC4)n3)CC2)c1`, the RP-LC retention time is reported as 809 s.
For `O=C(Cn1c(=O)cc(-c2nc(C3CC3)no2)c2ccccc21)Nc1ccc2c(c1)OCCO2`, the RP-LC retention time was 906 s.
`O=C(Nc1cccc(-c2ccn[nH]2)c1)c1ccco1` showed an RP-LC retention time of 631 s.
Compound `CC1CCN(S(=O)(=O)c2ccc(-c3nnc(C(=O)NCCc4ccccc4)o3)cc2)CC1` has an RP-LC retention time of 1100 s.
`O=C(CCC(=O)c1ccc(F)cc1)Nc1cnn(-c2ncc(N3CCCC3)cn2)c1` gave an RP-LC retention time of 799 s.
With `CN(C)c1ccc(/C=C2\C=Cc3ccccc32)cc1` the RP-LC retention time was 1240 s.
`Cc1nc2c(sc3nc(-c4ccccc4)ccc32)c(=O)n1CC(=O)Nc1ccc(C(F)(F)F)cc1` gave an RP-LC retention time of 1280 s.
Work on `CCCCCc1cc(O)c2c(c1)OC(C)(C)[C@@H]1CCC(C(=O)O)=CC21` (some centres undefined) yielded an RP-LC retention time of 1130 s.
For `CN(C)CCc1c[nH]c2ccc(CS(=O)(=O)N3CCCC3)cc12`, the RP-LC retention time was 629 s.
Compound `CNC(=O)C1CCN(c2nc3ccc(-c4cccc(OC)c4)nc3s2)CC1` has an RP-LC retention time of 801 s.
`Cc1cc(NS(=O)(=O)c2c(C)noc2C)n(C2CCS(=O)(=O)C2)n1` (centres undefined) gave an RP-LC retention time of 676 s.
In the case of `CCCCNC(=O)C1CCC(=O)N(c2cc(OC)c(OC)c(OC)c2)C1c1ccc(OC)cc1` (centres undefined), the RP-LC retention time is reported as 709 s.
`Cc1ccc(NC(=O)C2CCN(S(=O)(=O)c3ccc4c(c3)CCCC(=O)N4)CC2)cc1` showed an RP-LC retention time of 948 s.
Compound `COc1ccc(F)cc1S(=O)(=O)NCC1(C)CCOCC1` has an RP-LC retention time of 785 s.
With `Cc1ccc2oc(-c3nnc(C(=O)NCc4ccc(C)o4)o3)c(C)c2c1` the RP-LC retention time was 1100 s.
In the case of `COCCCNC(=O)c1cc2c(n(-c3ccc(C(F)(F)F)cc3)c1=O)CCCC2=O`, the RP-LC retention time is reported as 823 s.
Work on `CCCn1cc(CCNS(=O)(=O)c2ccc(F)cc2F)c2cccnc21` yielded an RP-LC retention time of 848 s.
Compound `COCCN1CC(CO)C2(CCN(Cc3ccc(OC)cc3OC)CC2)C1` (centres undefined) has an RP-LC retention time of 540 s.
Work on `Cc1ccc(-c2nc3cnccn3c2Nc2c(C)cccc2C)cc1` yielded an RP-LC retention time of 947 s.
Work on `Cc1nnc(-c2ccc(S(=O)(=O)N3CCOCC3)o2)o1` yielded an RP-LC retention time of 664 s.
In the case of `CCOC(=O)N1CCN(C(=S)Nc2ccc3nc(N4CCN(C)CC4)cc(C)c3c2)CC1`, the RP-LC retention time is reported as 540 s.
Compound `CCC(C)NC(=O)CCc1c(-c2ccc(Cl)cc2)nc2ccccn12` (centres undefined) has an RP-LC retention time of 653 s.
For `Cc1cc(-c2nnc(C3CCC3)o2)c(C)n1CC(=O)NCc1cccc(Cl)c1`, the RP-LC retention time was 897 s.
`CCOC(=O)c1c(S(=O)(=O)N2CCC(C(=O)Nc3ccc(Cl)cc3)CC2)c(C)n(CC)c1C` showed an RP-LC retention time of 957 s.
Work on `O=C(c1ccccn1)N1CCC(Oc2cc(N3CCCCC3)ncn2)C1` (centres undefined) yielded an RP-LC retention time of 686 s.
`CCn1ccc2c(cc(C(=O)Nc3cc(C)c(Cl)cc3OC)n2C)c1=O` showed an RP-LC retention time of 933 s.
For `Cc1cccc(N2CCN(C3=NC(=O)C(Cc4ccccc4)S3)CC2)c1` (centres undefined), the RP-LC retention time was 910 s.
With `Cc1ccc(-c2cc3c4nnc(SCC(=O)Nc5ccccc5C(F)(F)F)n4ccn3n2)cc1C` the RP-LC retention time was 1020 s.
With `COc1ccc(S(=O)(=O)Nc2cccc(-c3cn4cccc(C)c4n3)c2)cc1OC` the RP-LC retention time was 634 s.
Work on `C[C@@]12N[C@@H](Cc3ccccc31)c1ccccc12` yielded an RP-LC retention time of 655 s.
`CC(C)CC1OC(=O)C2=CCCCC21` (centres undefined) gave an RP-LC retention time of 1050 s.
Compound `O=C(NC1CCCc2ccccc21)c1ccc(-n2nc(N3CCCC3)ccc2=O)cc1` (centres undefined) has an RP-LC retention time of 920 s.
For `O=C(c1ccc(Cl)cc1)N(CCS(=O)(=O)N1CCNCC1)CC1CCCO1` (centres undefined), the RP-LC retention time was 581 s.
Compound `COc1ccc(-c2nnc(-c3ccccc3)o2)cc1S(=O)(=O)Nc1cccnc1` has an RP-LC retention time of 725 s.
`Nc1nc(CN2CCN(c3ccccn3)CC2)nc(Nc2cccc(Cl)c2)n1` gave an RP-LC retention time of 788 s.
`CN(CC1CCOCC1)C(=O)Cc1ccsc1` gave an RP-LC retention time of 691 s.
With `CCCn1cc(CCNC(=O)c2cc(C)ccc2C)c2cccnc21` the RP-LC retention time was 827 s.
